Test results as given in patent US20080249088A1, “Topical Delivery of Antifungal Drugs” (priority 2007, published 2008).

Experiment: solubility in water
Assay type: physicochemical
Method: In the preferred embodiment, a 100 ml. mixture would be created by mixing 1 gram of butenafine with 5 ml. of benzyl alcohol at room temperature. This would then be dissolved into 85 ml. of ethanol, then 10 ml. of water would be added.

- solubility in water: limited solubility
SMILES: CN(Cc1ccc(C(C)(C)C)cc1)Cc1cccc2ccccc12 [Butenafine, butenafine]
